Laboratory results taken from US20030100479A1, “Gene polymorphisms and response to treatment” (priority 2001, published 2003).
Entries after “also recorded” stand apart in the source; their conditions may differ.

Experiments:
[1] = Clinical trial of GW320659: change in Food Craving Inventory (Total) score week 0 to week 24, by genotype; type: in vivo, human; settings: for Change in Food Craving Inventory, mean response: 10 mg+15 mg; for Placebo adjusted mean change in Food Craving Inventory (Total) score: 15 mg dose group; for Mean change in Food Craving Inventory (Total) score: data not shown
Text: (§1) Using genotyping methods as are well known in the art, genetic data were obtained from approximately 200 of more than 500 human subjects enrolled in a dose-ranging efficacy and safety study of GW320659 for weight loss (main study group; a randomized, double-blind, placebo controlled, dose-ranging clinical trial); GW320659 was used in conjunction with a mildly hypocaloric diet and brief weight management guidance. Subjects were between the ages of 18-65 years, with a Body Mass Index (BMI) of 30-40, and were not on any psychotropic medications or other anti-obesity medications. Subjects were randomized into one of five treatment groups: placebo or GW320659 at 2.5 mg/day, 5 mg/day, 10 mg/day, or 15 mg/day (oral administration). In the main study group, for the GW320659 15 mg/day dosage, average weight loss was approximately 3.7 kg (108 subjects; data not shown).
(§2) Subjects were assessed for various parameters, including absolute change in body weight from week 0 to week 24 of the study; supine heart rate, diastolic blood pressure and systolic blood pressure at multiple predetermined time-points across the study; and change in Food Craving Inventory (Total) score from week 0 to week 24.
The endpoint of Change in Food Craving Inventory (total score) was analyzed with the same methods.
The Food Craving Inventory used was a validated scale developed at Louisiana State University. It is a scale of 37 items designed to measure food cravings for specific foods. For each item the subject is asked “Over the past month, how often have you experienced a craving for the food?”. Possible responses were Never, Rarely, Sometimes, Often, and Always. These responses were converted to ordinal scores (1, 2, 3, 4, 5). The mean total score was computed for each patient. Change from baseline mean scores were analyzed. Possible range for this measure was −4 to 4; a negative number indicates a decrease in cravings.
The change in Food Craving Inventory was assessed by grouping low dose treatments together (2.5+5 mg treatments) and higher dose treatments together (10 mg+15 mg), and comparing to placebo, using a p-value threshold set at […] (the minimum level necessary to get further automatic splits). The software then determined the remaining splits for the 10 mg+15 mg group. The splits found in the 10+15 mg group were then manually duplicated for the lower dose group (2.5+5 mg) for comparison purposes. As an example, for the 10 mg+15 mg treatment doses, the mean response for subjects with genotype 1, 2 or 2,2 for the NET1 C120A genetic marker and a baseline weight greater than 86.6 kg, was −0.55 (std=0.37 n=49). FIG. 11. For all subjects not in the defined subgroup, mean response was −0.02 (std=0.60, n=25).

[2] = Clinical trial of GW320659: change in supine diastolic blood pressure (time-adjusted AUC), by genotype; type: in vivo, human
Text: as §1, §2
(§3) Analyses of changes in cardiovascular endpoints (HR, SBP, DBP, all measured in supine subjects) were conducted individually for each of the polymorphic sites, and analyzed as follows. Vital sign assessments at all post-baseline visits were analyzed utilizing a repeated measures (mixed) ANOVA model. Genotype by treatment interactions were assessed. The following model was used.
(§4) If the treatment by time interaction was non-significant, the corresponding term was planned to be removed from the model, prior to assessing treatment by genotype interaction. Subsequently, this term was removed for all vital signs analyses. In addition, vital signs data was analyzed utilizing a time-weighted area under the curve (adjusted for baseline) analysis. Model #2 (used for the efficacy analyses) was employed for these analyses.
(§5) Supine heart rate (HR), supine systolic blood pressure (SBP) and supine diastolic blood pressure (DBP) were assessed at various fixed intervals across the duration of the study. Summaries and analyses were conducted on the “area under the curve” (AUC) values (adjusted for time on study and baseline). All reported p-values in this section refer to AUC analyses, using Model No.2 as described above.
Accordingly, for some recursive partioning analysis the treatment groups were split in this manner (15 mg versus all other groups). The p-value threshold was set 0.10 (the minimum level necessary to get further automatic splits). The software then determined the remaining splits for the 15 mg group. […]

[3] = system: norepinephrine uptake; settings: Kelley et al., J. Med. Chem. 39:347 (1996); cited from earlier work
[4] = Clinical trial of GW320659: change in supine systolic blood pressure (time-adjusted AUC), by genotype; type: in vivo, human
Text: as §1, with “Subjects were randomized into one of five treatment groups: placebo or GW320659 at 2.5 mg/day, 5 mg/day, 10 mg/day, or 15 mg/day (oral administration). In the main study group, for the GW320659 15 mg/day dosage, average weight loss was approximately 3.7 kg (108 subjects; data not shown).” left out
as §2
as §3, with “The following model was used.” left out

[5] = Clinical trial of GW320659: change in supine heart rate (time-adjusted AUC), by genotype; type: in vivo, human; design: Change in Heart Rate, Mean / Heart Rate (mean time adusted change): unit not given here
Text: as §1, §2, §3, §4
The multilocus genotypes from each individual were used to enumerate all possible haplotypes. These haplotypes were assigned starting frequencies. The haplotype frequencies were updated with frequencies calculated from all the possible haplotypes from each individual in the sample. This continued until the frequencies were constant from iteration to iteration.
Regression-based models were used to relate inferred haplotype probabilities for each individual with the continuous response.
as §5
As in Food Craving Inventory (Example 6, above), manual splits were created by treatment dose (placebo, 2.5+5 mg, and 10+15 mg). The p-value threshold was then set at 0.10 (the minimum level necessary to get further automatic splits). The software then determined the remaining splits for the 10+15 mg group. The splits found in the 10+15 mg group were then manually duplicated for the lower dose groups (for comparison purposes).

[6] = subgroup 2/2 NET1T342C and/or 2/2 NET1G155A and/or 2/2 NR1G6435A, 10 mg/day+15 mg/day, 26 subjects
[7] = NET1 T342C (2,2) and without DRD2 C12121T (2,2), 10 mg/day or 15 mg/day
[8] = subgroup 2,2 for NET1T342C and/or NET1G155A and/or NR1G6435A, 10 mg and 15 mg combined
[9] = subgroup 2,2 for NET1T342C and/or NET1G155A and/or NR1G6435A, 10 mg/day+15 mg/day, not significantly different from placebo

C[C@@H]1CO[C@@](O)(c2cc(F)cc(F)c2)[C@H](C)N1.Cl [GW320659, (2S,3S,5R)-2-(3,5-difluorophenyl)-3,5-dimethyl-2-morpholinol]
Change in Food Craving Inventory, mean response ([1]; NET1 C120A genotype 1,2 or 2,2 and baseline weight greater than 86.6 kg, std=0.37 n=49): −0.55
Change in Food Craving Inventory, mean response ([1]; all subjects not in the defined subgroup, std=0.60, n=25): −0.02
Placebo adjusted mean change in Food Craving Inventory (Total) score ([1]; 5HTT G160A 2,2 genotype, scale range −4 to 4): 0.7
Mean change in Food Craving Inventory (Total) score ([1]; DRD2 C12121T 1,1 genotype, 15 mg dose): −0.7
Mean change in Food Craving Inventory (Total) score ([1]; DRD2 C20236T 2,2 genotype, 15 mg dose): −0.7
Placebo adjusted mean change in Food Craving Inventory (Total) score ([1]; NET1 C120A genotype 1,1): 0.2
Placebo adjusted mean change in Food Craving Inventory (Total) score ([1]; NET1 C120A genotype 1,2): −0.4
Placebo adjusted mean change in Food Craving Inventory (Total) score ([1]; NET1 C120A genotype 2,2): −0.4
Mean change in Food Craving Inventory (Total) score ([1]; NET1 T342C 2,2 genotype, 10 mg dose): −0.7
Mean change in Food Craving Inventory (Total) [1, 6]: −0.528
Changes in diastolic blood pressure compared to subjects with alternate genotypes [2, 7]: decreased changes in heart rate and blood pressure; also recorded: comparatively small changes in HR, SBP and DBP
Mean rise in DBP [2, 8]: 2.4 mmHG
Overall mean time-adjusted change in Diastolic Blood Pressure, mean rise [2, 9]: 2.4 mm Hg
Diastolic Blood Pressure (mean time adjusted change) [2, 6]: 2.431
Inhibition of norepinephrine uptake [3]: potent, selective inhibitor of norepinephrine uptake
Changes in systolic blood pressure compared to subjects with alternate genotypes [4, 7]: decreased changes in heart rate and blood pressure; also recorded: comparatively small changes in HR, SBP and DBP
Systolic Blood Pressure (mean time adjusted change) [4, 6]: 0.9733
Increase in heart rate compared to subjects with alternate genotypes ([5]; DRD2 C12121T (2′,2) and MAOBG644A (1,1) genotypes, 10 mg/day or 15 mg/day): larger increase in heart rate
Changes in heart rate compared to subjects with alternate genotypes [5, 7]: decreased changes in heart rate and blood pressure; also recorded: comparatively small changes in HR, SBP and DBP
Change in Heart Rate, Mean ([5]; haplotype 1,1 5HTTC867T 5HTTT3287C, All Ethnicities, 10 and 15 mg combined (Table 6)): 3.5075
Change in Heart Rate, Mean ([5]; haplotype 1,1 5HTTC867T 5HTTT3287C, Caucasians, 10 and 15 mg combined (Table 7)): 3.811
Change in Heart Rate, Mean ([5]; haplotype 1,1 5HTTDel-Ins 5HTTC867T, All Ethnicities, 10 and 15 mg combined (Table 6)): 4.2
Change in Heart Rate, Mean ([5]; haplotype 1,1 5HTTDel-Ins 5HTTC867T, Caucasians, 10 and 15 mg combined (Table 7)): 4.077
Change in Heart Rate, Mean ([5]; haplotype 1,1,1 5HTTDel-Ins 5HTTC867T 5HTT3287C, All Ethnicities, 10 and 15 mg combined (Table 6)): 5.48
Change in Heart Rate, Mean ([5]; haplotype 1,1,1 5HTTDel-Ins 5HTTC867T 5HTT3287C, Caucasians, 10 and 15 mg combined (Table 7)): 5.69
Change in Heart Rate, Mean ([5]; haplotype 1,1,2 5HTTDel-Ins 5HTTC867T 5HTT3287C, All Ethnicities, 10 and 15 mg combined (Table 6)): −0.6849
Change in Heart Rate, Mean ([5]; haplotype 1,1,2 5HTTDel-Ins 5HTTC867T 5HTT3287C, Caucasians, 10 and 15 mg combined (Table 7)): −0.8345
Change in Heart Rate, Mean ([5]; haplotype 1,2 5HTTC867T 5HTTT3287C, All Ethnicities, 10 and 15 mg combined (Table 6)): −0.6851
Change in Heart Rate, Mean ([5]; haplotype 1,2 5HTTC867T 5HTTT3287C, Caucasians, 10 and 15 mg combined (Table 7)): −0.8347
Change in Heart Rate, Mean ([5]; haplotype 1,2 5HTTDel-Ins 5HTTC867T, All Ethnicities, 10 and 15 mg combined (Table 6)): 6.424
Change in Heart Rate, Mean ([5]; haplotype 1,2 5HTTDel-Ins 5HTTC867T, Caucasians, 10 and 15 mg combined (Table 7)): 6.807
Change in Heart Rate, Mean ([5]; haplotype 1,2,1 5HTTDel-Ins 5HTTC867T 5HTT3287C, All Ethnicities, 10 and 15 mg combined (Table 6)): 6.404
Change in Heart Rate, Mean ([5]; haplotype 1,2,1 5HTTDel-Ins 5HTTC867T 5HTT3287C, Caucasians, 10 and 15 mg combined (Table 7)): 6.808
Change in Heart Rate, Mean ([5]; haplotype 2,1 5HTTC867T 5HTTT3287C, All Ethnicities, 10 and 15 mg combined (Table 6)): 5.565
Change in Heart Rate, Mean ([5]; haplotype 2,1 5HTTC867T 5HTTT3287C, Caucasians, 10 and 15 mg combined (Table 7)): 5.827
Change in Heart Rate, Mean ([5]; haplotype 2,1 5HTTDel-Ins 5HTTC867T, All Ethnicities, 10 and 15 mg combined (Table 6)): 2.183
Change in Heart Rate, Mean ([5]; haplotype 2,1 5HTTDel-Ins 5HTTC867T, Caucasians, 10 and 15 mg combined (Table 7)): 3.034
Change in Heart Rate, Mean ([5]; haplotype 2,1,1 5HTTDel-Ins 5HTTC867T 5HTT3287C, All Ethnicities, 10 and 15 mg combined (Table 6)): 2.256
Change in Heart Rate, Mean ([5]; haplotype 2,1,1 5HTTDel-Ins 5HTTC867T 5HTT3287C, Caucasians, 10 and 15 mg combined (Table 7)): 3.11
Change in Heart Rate, Mean ([5]; haplotype 2,2 5HTTDel-Ins 5HTTC867T, All Ethnicities, 10 and 15 mg combined (Table 6)): 4.879
Change in Heart Rate, Mean ([5]; haplotype 2,2 5HTTDel-Ins 5HTTC867T, Caucasians, 10 and 15 mg combined (Table 7)): 5.085
Change in Heart Rate, Mean ([5]; haplotype 2,2,1 5HTTDel-Ins 5HTTC867T 5HTT3287C, All Ethnicities, 10 and 15 mg combined (Table 6)): 4.782
Change in Heart Rate, Mean ([5]; haplotype 2,2,1 5HTTDel-Ins 5HTTC867T 5HTT3287C, Caucasians, 10 and 15 mg combined (Table 7)): 4.92
Mean rise in HR [5, 8]: 4.7 bpm
Overall mean time-adjusted change in Heart Rate, mean rise [5, 9]: 4.7 beats per minute
Heart Rate (mean time adusted change) [5, 6]: 4.666
Mean change in HR ([5]; subgroup DRD2 C12121T (1,1) and MAOB G644A (1,1), 10 mg and 15 mg dosing): 13 bpm
Overall mean time-adjusted change in Heart Rate, mean increase ([5]; subgroup DRD2C12121T=2,2 and MAOBG644A=1,1, 10 mg/day+15 mg/day): 13 beats per minute
